Assay results as given in patent US10640534B2 (Agios Pharmaceuticals, Inc., priority 2012, dated 2020).

System: U87MG cells
Test: Cellular assay, inhibition of 2-HG production in U87MG cells
Assay type: cell-based
Details: Homo sapiens, U-87 MG, 48 h
Protocol: Cells (HT1080 or U87MG) are grown in T125 flasks in DMEM containing 10% FBS, 1× penicillin/streptomycin and 500 ug/mL G418 (present in U87MG cells only). They are harvested by trypsin and seeded into 96 well white bottom plates at a density of 5000 cell/well in 100 ul/well in DMEM with 10% FBS. […] Cells are incubated overnight at 37° C. in 5% CO2. The next day test compounds are made up at 2× the final concentration and 100 ul are added to each cell well. The final concentration of DMSO is 0.2% and the DMSO control wells are plated in row G. The plates are then placed in the incubator for 48 hours. […] The cell plate is placed back in the incubator for another 24 hours. At 72 hours post compound addition, 10 mL/plate of Promega Cell Titer Glo reagent is thawed and mixed. The cell plate is removed from the incubator and allowed to equilibrate to room temperature. Then 100 ul of Promega Cell Titer Glo reagent is added to each well of media. The cell plate is then placed on an orbital shaker for 10 minutes and then allowed to sit at room temperature for 20 minutes. The plate is then read for luminescence with an integration time of 500 ms.

O=C(NC1CC(F)(F)C1)[C@H](c1ccccc1Cl)N(C(=O)[C@@H]1CCC(=O)N1c1ncccn1)c1cc(F)cc(F)c1 [Compound 70, (S)—N—((S)-1-(2-Chlorophenyl)-2-((3,3-difluorocyclobutyl)amino)-2-oxoethyl)-N-(3,5-difluoro-phenyl)-5-oxo-1-(pyrimidin-2-yl)pyrrolidine-2-carboxamide]
IC50: < 100 nM

N#Cc1ccnc(N2C(=O)[C@H](O)C[C@H]2C(=O)N(c2cc(F)cc(F)c2)[C@H](C(=O)NC2CCC(F)(F)CC2)c2ccccc2Cl)c1 [Compound 125, (2S,4R)—N—((S)-1-(2-Chlorophenyl)-2-(4,4-difluorocyclohexylamino)-2-oxoethyl)-1-(4-cyanopyridin-2-yl)-N-(3,5-difluorophenyl)-4-hydroxy-5-oxopyrrolidine-2-carboxamide]
IC50: < 100 nM

N#Cc1ccnc(N2C(=O)CC[C@H]2C(=O)N(c2cc(F)cc(C3CC3)c2)[C@H](C(=O)NC2CC(F)(F)C2)c2ccccc2Cl)c1 [Compound 204, (S)—N—((S)-1-(2-Chlorophenyl)-2-((3,3-difluorocyclobutyl)amino)-2-oxoethyl)-1-(4-cyanopyridin-2-yl)-N-(3-cyclopropyl-5-fluorophenyl)-5-oxopyrrolidine-2-carboxamide]
IC50: < 100 nM

N#Cc1ccnc(N2C(=O)CC[C@H]2C(=O)N(c2cccc(F)c2F)[C@H](C(=O)NC2CC(F)(F)C2)c2ccccc2Cl)c1 [Compound 188, (S)—N—((S)-1-(2-Chlorophenyl)-2-((3,3-difluorocyclobutyl)amino)-2-oxoethyl)-1-(4-cyanopyridin-2-yl)-N-(2,3-difluorophenyl)-5-oxopyrrolidine-2-carboxamide]
IC50: < 100 nM

O=C(NC1CC(F)(F)C1)C(c1ccccc1Cl)N(C(=O)[C@@H]1CCCC(=O)N1c1ncccn1)c1cccc(F)c1 (stereo in doubt) [Compound 20, (S)—N—((R)-1-(2-Chloro-phenyl)-2-((3,3-difluorocyclobutyl)amino)-2-oxoethyl)-N-(3-fluoro-phenyl)-6-oxo-1-(pyrimidin-2-yl)piperidine-2-carboxamide]
IC50: 100 to 500 nM

N#Cc1ccnc(N2C(=O)CC[C@H]2C(=O)N(c2ccc3[nH]ncc3c2)[C@H](C(=O)NC2CCC(F)(F)CC2)c2ccccc2Cl)c1 [Compound 203, (S)—N—((S)-1-(2-Chlorophenyl)-2-((4,4-difluorocyclohexyl)amino)-2-oxoethyl)-1-(4-cyanopyridin-2-yl)-N-(1H-indazol-5-yl)-5-oxopyrrolidine-2-carboxamide]
IC50: < 100 nM

N#Cc1ccnc(N2C(=O)CC[C@H]2C(=O)N(c2cccc(C3CC3)c2)[C@H](C(=O)NC2CC(F)(F)C2)c2ccccc2Cl)c1 [Compound 173, (S)—N—((S)-1-(2-Chlorophenyl)-2-((3,3-difluorocyclobutyl)amino)-2-oxoethyl)-1-(4-cyanopyridin-2-yl)-N-(3-cyclopropylphenyl)-5-oxopyrrolidine-2-carboxamide]
IC50: < 100 nM

N#Cc1ccnc(N2C(=O)[C@H](O)C[C@H]2C(=O)N(c2cc(F)cc(F)c2)[C@H](C(=O)NC2CCC(F)(F)CC2)c2ccccc2Cl)n1 [Compound 127, (2S,4R)—N—((S)-1-(2-Chlorophenyl)-2-(4,4-difluorocyclohexylamino)-2-oxoethyl)-1-(4-cyanopyrimidin-2-yl)-N-(3,5-difluorophenyl)-4-hydroxy-5-oxopyrrolidine-2-carboxamide]
IC50: < 100 nM

N#Cc1ccnc(N2C(=O)OCC[C@H]2C(=O)N(c2cc(F)cc(F)c2)[C@H](C(=O)NC2CCC(F)(F)CC2)c2ccccc2Cl)n1 [Compound 144, (S)—N—((S)-1-(2-Chlorophenyl)-2-((4,4-difluorocyclohexyl)amino)-2-oxoethyl)-3-(4-cyanopyrimidin-2-yl)-N-(3,5-difluorophenyl)-2-oxo-1,3-oxazinane-4-carboxamide]
IC50: < 100 nM

O=C(NC1CCC(F)(F)CC1)[C@H](c1ccccc1Cl)N(C(=O)[C@@H]1CCC(=O)N1c1cnccn1)c1cccc(F)c1 [Compound 58, (S)—N—((S)-1-(2-Chlorophenyl)-2-(4,4-difluorocyclohexylamino)-2-oxoethyl)-N-(3-fluorophenyl)-5-oxo-1-(pyrazin-2-yl)pyrrolidine-2-carboxamide]
IC50: < 100 nM

N#Cc1ccnc(N2C(=O)CC[C@H]2C(=O)N(c2cc(F)cc(F)c2)[C@H](C(=O)NC2CC(F)(F)C2)c2ccccc2)c1 [Compound 210, (S)-1-(4-Cyanopyridin-2-yl)-N—((S)-2-(3,3-difluorocyclobutylamino)-2-oxo-1-phenylethyl)-N-(3,5-difluorophenyl)-5-oxopyrrolidine-2-carboxamide]
IC50: < 100 nM

N#Cc1ccc(N2C(=O)CC[C@H]2C(=O)N(c2cccc(F)c2)[C@H](C(=O)NC2CC(F)(F)C2)c2ccccc2Cl)nc1 [Compound 47]
IC50: 100 to 500 nM

COc1cccc(N(C(=O)[C@@H]2CCC(=O)N2c2nccc(C#N)n2)[C@H](C(=O)NC2CC(F)(F)C2)c2ccccc2Cl)c1 [Compound 164, (S)—N—((S)-1-(2-Chlorophenyl)-2-(3,3-difluorocyclobutyl-amino)-2-oxoethyl)-1-(4-cyanopyrimidin-2-yl)-N-(3-methoxyphenyl)-5-oxopyrrolidine-2-carboxamide]
IC50: < 100 nM

N#Cc1ccnc(N2C(=O)[C@H](O)C[C@H]2C(=O)N(c2cc(F)cc(F)c2)[C@H](C(=O)NC2CC(F)(F)C2)c2ccccc2Cl)n1 [Compound 117, (2S,4R)—N—((S)-1-(2-Chlorophenyl)-2-((3,3-difluorocyclobutyl)amino)-2-oxoethyl)-1-(4-cyanopyrimidin-2-yl)-N-(3,5-difluorophenyl)-4-hydroxy-5-oxopyrrolidine-2-carboxamide]
IC50: < 100 nM

O=C(NC1CC(F)(F)C1)[C@H](c1ccccc1Cl)N(C(=O)[C@@H]1COCC(=O)N1c1ncccn1)c1cccc(F)c1 [Compound 30, (S)—N—((S)-1-(2-chlorophenyl)-2-((3,3-difluorocyclobutyl)amino)-2-oxoethyl)-N-(3-fluorophenyl)-5-oxo-4-(pyrimidin-2-yl)morpholine-3-carboxamide]
IC50: 100 to 500 nM

N#Cc1ccnc(N2C(=O)[C@@H](O)C[C@H]2C(=O)N(c2cccc(F)c2)[C@H](C(=O)NC2CC(F)(F)C2)c2ccccc2Cl)n1 [Compound 119, (2S,4S)—N—((S)-1-(2-Chlorophenyl)-2-(3,3-difluorocyclobutylamino)-2-oxoethyl)-1-(4-cyanopyrimidin-2-yl)-N-(3-fluorophenyl)-4-hydroxy-5-oxopyrrolidine-2-carboxamide]
IC50: 100 to 500 nM

CC(C)(C)OC(=O)N1CC(=O)N(c2nccc(C#N)n2)[C@H](C(=O)N(c2cc(F)cc(F)c2)[C@H](C(=O)NC2CCC(F)(F)CC2)c2ccccc2Cl)C1 [Compound 93, (S)-tert-Butyl 3-(((S)-1-(2-chlorophenyl)-2-((4,4-difluorocyclohexyl)amino)-2-oxoethyl)(3,5-difluorophenyl)carbamoyl)-4-(4-cyanopyrimidin-2-yl)-5-oxopiperazine-1-carboxylate]
IC50: < 100 nM

N#Cc1cccc(N(C(=O)[C@@H]2CCC(=O)N2c2cc(C#N)ccn2)[C@H](C(=O)NC2CCC(F)(F)CC2)c2ccccc2Cl)c1 [Compound 166, (S)—N—((S)-1-(2-Chlorophenyl)-2-((4,4-difluorocyclohexyl)amino)-2-oxoethyl)-N-(3-cyanophenyl)-1-(4-cyanopyridin-2-yl)-5-oxopyrrolidine-2-carboxamide]
IC50: < 100 nM

N#Cc1ccnc(N2C(=O)N(CCO)C[C@H]2C(=O)N(c2cccc(F)c2)C(C(=O)NC2CC(F)(F)C2)c2ccccc2Cl)c1 (stereo partly drawn) [Compound 112, (4S)—N-(1-(2-Chlorophenyl)-2-(3,3-difluorocyclobutyl-amino)-2-oxoethyl)-3-(4-cyanopyridin-2-yl)-N-(3-fluorophenyl)-1-(2-hydroxyeth-yl)-2-oxoimidazolidine-4-carboxamide]
IC50: < 100 nM

C[C@]1(O)C[C@@H](C(=O)N(c2cccc(F)c2)C(C(=O)NC2CC(F)(F)C2)c2ccccc2Cl)N(c2cc(C#N)ccn2)C1=O (single isomer, unassigned) [Compound 183]
IC50: < 100 nM

N#Cc1ccnc(N2C(=O)CC[C@H]2C(=O)N(c2cc(F)cc(C3CC3)c2)[C@H](C(=O)NC2CCC(F)(F)CC2)c2ccccc2Cl)c1 [Compound 202, (S)—N—((S)-1-(2-Chlorophenyl)-2-((4,4-difluorocyclohexyl)amino)-2-oxoethyl)-1-(4-cyanopyridin-2-yl)-N-(3-cyclopropyl-5-fluorophenyl)-5-oxopyrrolidine-2-carboxamide]
IC50: < 100 nM

CS(=O)(=O)c1cc(F)cc(N(C(=O)[C@@H]2CCC(=O)N2c2cc(C#N)ccn2)C(C(=O)NC2CCC(F)(F)CC2)c2ccccc2Cl)c1 (stereo partly drawn) [Compound 105, (2S)—N-(1-(2-Chlorophenyl)-2-((4,4-difluorocyclohexyl)amino)-2-oxoethyl)-1-(4-cyanopyridin-2-yl)-N-(3-fluoro-5-(methylsulfonyl)phenyl)-5-oxopyrrolidine-2-carboxamide]
IC50: < 100 nM

CS(=O)(=O)c1cccc(N(C(=O)[C@@H]2CCC(=O)N2c2cc(C#N)ccn2)C(C(=O)NC2CCC(F)(F)CC2)c2ccccc2Cl)c1 (stereo partly drawn) [Compound 95, (2S)—N-(1-(2-Chlorophenyl)-2-((4,4-difluorocyclohexyl)amino)-2-oxoethyl)-1-(4-cyanopyridin-2-yl)-N-(3-(methylsulfonyl)phenyl)-5-oxopyrrolidine-2-carboxamide]
IC50: < 100 nM
